In US9050346B2, “Bromodomain inhibitors” (AbbVie Inc., priority 2013, dated 2015) one finds Ki data, which are given here for 22 compounds.

Assay [1] concerns the target T1, BRD4 (BDI_K57-E168) (Homo sapiens, UniProt O60885).
T1 construct: BD1: amino acids K57-E168; made in house
The experiment in a line: TR-FRET bromodomain binding assay, BRD4 first bromodomain. The note with it: His-tagged BD1, 100 nM Alexa647 probe; Ki calculated from IC50; dilution protocol A-G. As for the experimental part: (§1) A time-resolved fluorescence resonance energy transfer (TR-FRET) assay was used to determine the affinities of compounds of the Examples listed in Table 1 for each bromodomain of BRD4. His-tagged first (BD1: amino acids K57-E168) and second (BD2: amino acids E352-E168) bromodomains of BRD4 were expressed and purified. An Alexa647-labeled BET-inhibitor was used as the fluorescent probe in the assay.
(§2) Compound dilution series were prepared in DMSO via an approximately 3-fold serial dilution from one of the following: • Assay method A: 2.5 mM-800 nM • Assay method B: 2.5 mM-797 nM • Assay method C: 1250 μM-21 nM • Assay method D: 500 μM-8.5 nM • Assay method E: 0.47 mM to 7.8 nM • Assay method F: 250 μM-4.2 nM • Assay method G: 0.047 mM to 0.78 nM or 5-fold serial dilution from Assay Method A or Assay Method B.
(§3) For Assay methods A, C, D, and F: Compounds were then diluted 6:100 in assay buffer (20 mM Sodium Phosphate, pH 6.0, 50 mM NaCl, 1 mM Ethylenediaminetetraacetic acid, 0.01% Triton X-100, 1 mM DL-Dithiothreitol) to yield 3× working solutions. Six microliters (μL) of the working solution was then transferred to white, low-volume assay plates (Costar #3673). A 1.5× assay mixture containing His-tagged bromodomain, Europium-conjugated anti-His antibody (Invitrogen PV5596) and the Alexa-647-conjugated probe molecule was also prepared. Twelve μL of this solution were added to the assay plate to reach a final volume of 18 μL.
(§4) For Assay methods B, E, and G: Compound dilutions were added directly into white, low-volume assay plates (Perkin Elmer Proxiplate 384 Plus#6008280) using a Labcyte Echo in conjunction with Labcyte Access and Thermo Multidrop CombinL robotics. Compounds were then suspended in eight microliters (μL) of assay buffer (20 mM Sodium Phosphate, pH 6.0, 50 mM NaCl, 1 mM Ethylenediaminetetraacetic acid disodium salt dihydrate, 0.01% Triton X-100, 1 mM DL-Dithiothreitol) containing His-tagged bromodomain, Europium-conjugated anti-His antibody (Invitrogen PV5596) and Alexa-647-conjugated probe.
(§5) The final concentration of 1× assay mixture for assay methods A, B, C, D, E, F, and G contains 2% DMSO, 8 nM His-tagged bromodomain, 1 nM Europium-conjugated anti-His-tag antibody and 100 nM or 30 nM probe (for BDI or BDII, respectively) and compound concentration in the range of: 50 μM-16 nM for method A, 49.02 μM-15.63 nM for method B, 25 μM-423 pM for method C, 10 μM-169 pM for method D, 9.19 μM-150 pM for method E, 5 μM-85 pM for method F, and 0.92 μM-15 pM for method G.
(§6) After a one-hour equilibration at room temperature, TR-FRET ratios were determined using an Envision multilabel plate reader (Ex 340, Em 495/520).
(§7) TR-FRET data were normalized to the means of 24 no-compound controls (“high”) and 8 controls containing 1 μM un-labeled probe (“low”). Percent inhibition was plotted as a function of compound concentration and the data were fit with the 4 parameter logistic equation to obtain IC50s Inhibition constants (Ki) were calculated from the IC50s, probe Kd and probe concentration. Typical Z′ values were between 0.65 and 0.75. The minimum significant ratio was determined to evaluate assay reproducibility (Eastwood et al., (2006) J Biomol Screen, 11: 253-261). The MSR was determined to be 2.03 for BDI and 1.93 for BDII, and a moving MSR (last six run MSR overtime) for both BDI and BDII was typically <3.

Assay [2] addresses T2, BRD4 (BDII_E352-M457) (Homo sapiens, UniProt O60885).
T2 construct: made in house
The experiment in a line: TR-FRET bromodomain binding assay, BRD4 second bromodomain. As for the experimental part: as §1, §2, §3, §4, §5, §6, §7

The term Ki denotes a dissociation constant, usually derived from enzyme kinetics or from competition with a known ligand. For `Cc1[nH]c(-c2ccccc2Oc2ccccc2)c2cc[nH]c(=O)c12` [Example 14, 3-methyl-1-(2-phenoxyphenyl)-2H-pyrrolo[3,4-c]pyridin-4(5H)-one], the figures for the Ki in assay [1] and in assay [2] were 31.4 nM and 67.6 nM, respectively.

In the case of `Cc1[nH]c(-c2ccccc2Oc2ccccc2)c2cc(C(=O)N(C)C)[nH]c(=O)c12` [Example 41, N,N,3-trimethyl-4-oxo-1-(2-phenoxyphenyl)-4,5-dihydro-2H-pyrrolo[3,4-c]pyridine-6-carboxamide], the Ki is 141 nM in assay [1] and 944 nM in assay [2].

Regarding `Cc1[nH]c(-c2ccccc2Oc2ccc(F)cc2F)c2cc(C(=O)O)[nH]c(=O)c12` [Example 22, 1-[2-(2,4-difluorophenoxy)phenyl]-3-methyl-4-oxo-4,5-dihydro-2H-pyrrolo[3,4-c]pyridine-6-carboxylic acid], the Ki in assay [1] was 225 nM; in assay [2] it was 2790 nM.

As for `Cc1[nH]c(-c2cc(NS(C)(=O)=O)ccc2Oc2ccccc2)c2cn[nH]c(=O)c12` [Example 73, N-[3-(7-methyl-1-oxo-2,6-dihydro-1H-pyrrolo[3,4-d]pyridazin-5-yl)-4-phenoxyphenyl]methanesulfonamide], the Ki in assay [1] is 1.49 nM; in assay [2], 8.5 nM.

With `Cc1[nH]c(-c2ccccc2Oc2ccccc2)c2c1C(=O)NCC2` [Example 92, 3-methyl-1-(2-phenoxyphenyl)-2,5,6,7-tetrahydro-4H-pyrrolo[3,4-c]pyridin-4-one], the Ki was 14.1 nM in assay [1] and 47 nM in assay [2].

As to `Cc1[nH]c(-c2cc(NS(C)(=O)=O)ccc2Oc2ccccc2)c2nc[nH]c(=O)c12` [Example 91, N-[3-(5-methyl-4-oxo-4,6-dihydro-3H-pyrrolo[3,4-d]pyrimidin-7-yl)-4-phenoxyphenyl]methanesulfonamide], the values for the Ki in assay [1] and in assay [2] were 22.6 nM and 117 nM, respectively.

Consider `Cc1[nH]c(-c2ccccc2Oc2ccccc2)c2cc(-c3nc(-c4ccc(N(C)C)cc4)no3)[nH]c(=O)c12` [Example 62, 6-(3-(4-(dimethylamino)phenyl)-1,2,4-oxadiazol-5-yl)-3-methyl-1-(2-phenoxyphenyl)-2H-pyrrolo[3,4-c]pyridin-4(5H)-one], for which the Ki was more than 2380 nM in assay [1] and more than 4080 nM in assay [2].

Turning to `Cc1[nH]c(-c2ccccc2Oc2ccccc2)c2cc(-c3nc(-c4ccccc4)no3)[nH]c(=O)c12` [Example 46, 3-methyl-1-(2-phenoxyphenyl)-6-(3-phenyl-1,2,4-oxadiazol-5-yl)-2H-pyrrolo[3,4-c]pyridin-4(5H)-one], the Ki in assay [1] is 1250 nM; in assay [2], 1220 nM.

For the compound `Cc1[nH]c(-c2cc(NS(C)(=O)=O)ccc2Oc2ccc(F)cc2F)c2c1C(=O)NCC2` [Example 93, N-[4-(2,4-difluorophenoxy)-3-(3-methyl-4-oxo-4,5,6,7-tetrahydro-2H-pyrrolo[3,4-c]pyridin-1-yl)phenyl]methanesulfonamide], the Ki in assay [1] is 14 nM; in assay [2], 138 nM.

For `Cc1[nH]c(-c2ccccc2Oc2ccccc2)c2nc(C(=O)O)[nH]c(=O)c12` [Example 86, 5-methyl-4-oxo-7-(2-phenoxyphenyl)-4,6-dihydro-3H-pyrrolo[3,4-d]pyrimidine-2-carboxylic acid], the values for the Ki in assay [1] and in assay [2] were 1370 nM and 12300 nM, respectively.

As for `Cc1[nH]c(-c2ccccc2Oc2ccccc2)c2cn[nH]c(=O)c12` [Example 72, 7-methyl-5-(2-phenoxyphenyl)-2,6-dihydro-1H-pyrrolo[3,4-d]pyridazin-1-one], the Ki in assay [1] was 7.63 nM; in assay [2], 25.8 nM.

Turning to `CCOC(=O)c1cc2c(-c3cc(Cl)ccc3Oc3ccc(F)cc3F)[nH]c(C)c2c(=O)[nH]1` [Example 24, ethyl 1-[5-chloro-2-(2,4-difluorophenoxy)phenyl]-3-methyl-4-oxo-4,5-dihydro-2H-pyrrolo[3,4-c]pyridine-6-carboxylate], the results for the Ki in assay [1] and in assay [2] were 92.2 nM and 2750 nM, respectively.

In the case of `Cc1[nH]c(-c2cc(NS(C)(=O)=O)ccc2Oc2ccccc2)c2c1C(=O)NCC2` [Example 95, N-[3-(3-methyl-4-oxo-4,5,6,7-tetrahydro-2H-pyrrolo[3,4-c]pyridin-1-yl)-4-phenoxyphenyl]methanesulfonamide], the Ki is 3.67 nM in assay [1] and 20.4 nM in assay [2].

For `CCCc1noc(-c2cc3c(-c4ccccc4Oc4ccccc4)[nH]c(C)c3c(=O)[nH]2)n1` [Example 47, 3-methyl-1-(2-phenoxyphenyl)-6-(3-propyl-1,2,4-oxadiazol-5-yl)-2H-pyrrolo[3,4-c]pyridin-4(5H)-one], the Ki was 519 nM in assay [1] and 2520 nM in assay [2].

With `Cc1[nH]c(-c2cc(N)ccc2Oc2ccccc2)c2nc[nH]c(=O)c12` [Example 90, 7-(5-amino-2-phenoxyphenyl)-5-methyl-3,6-dihydro-4H-pyrrolo[3,4-d]pyrimidin-4-one], the Ki is 108 nM in assay [1] and 791 nM in assay [2].

As for `Cc1[nH]c(-c2cc(S(C)(=O)=O)ccc2F)c2c1C(=O)NCC2` [Example 99, 1-[2-fluoro-5-(methylsulfonyl)phenyl]-3-methyl-2,5,6,7-tetrahydro-4H-pyrrolo[3,4-c]pyridin-4-one], the Ki was 1620 nM in assay [1] and more than 4440 nM in assay [2].

With `CCOC(=O)c1cc2c(-c3cc([N+](=O)[O-])ccc3Oc3ccc(F)cc3F)[nH]c(C)c2c(=O)[nH]1` [Example 33, ethyl 1-[2-(2,4-difluorophenoxy)-5-nitrophenyl]-3-methyl-4-oxo-4,5-dihydro-2H-pyrrolo[3,4-c]pyridine-6-carboxylate], the Ki in assay [1] was 499 nM; in assay [2] it was 759 nM.

As for `Cc1[nH]c(-c2ccccc2)c2c1C(=O)NCC2` [Example 100, 3-methyl-1-phenyl-2,5,6,7-tetrahydro-4H-pyrrolo[3,4-c]pyridin-4-one], the Ki is 2250 nM in assay [1] and 2920 nM in assay [2].

Regarding `Cc1[nH]c(-c2ccccc2Oc2ccccc2)c2cc(C(=O)O)[nH]c(=O)c12` [Example 12, 3-methyl-4-oxo-1-(2-phenoxyphenyl)-4,5-dihydro-2H-pyrrolo[3,4-c]pyridine-6-carboxylic acid], the Ki in assay [1] was 82.6 nM; in assay [2] it was 546 nM.

For the compound `Cc1[nH]c(-c2cc(CN3CCN(C)CC3)ccc2Oc2ccc(F)cc2F)c2c1C(=O)NCC2` [Example 102, 1-{2-(2,4-difluorophenoxy)-5-[(4-methylpiperazin-1-yl)methyl]phenyl}-3-methyl-2,5,6,7-tetrahydro-4H-pyrrolo[3,4-c]pyridin-4-one], the Ki in assay [1] is 1560 nM; in assay [2] it was 3120 nM.

As to `Cc1ccc(S(=O)(=O)Nc2ccccc2-c2[nH]c(C)c3c(=O)[nH]ncc23)cc1` [Example 77, 4-methyl-N-[2-(7-methyl-1-oxo-2,6-dihydro-1H-pyrrolo[3,4-d]pyridazin-5-yl)phenyl]benzenesulfonamide], the Ki in assay [1] was more than 13000 nM; in assay [2] it was more than 22200 nM.

In the case of `Cc1[nH]c(-c2cc(S(C)(=O)=O)ccc2Oc2ccc(F)cc2F)c2cc(C(=O)O)[nH]c(=O)c12` [Example 40, 1-[2-(2,4-difluorophenoxy)-5-(methylsulfonyl)phenyl]-3-methyl-4-oxo-4,5-dihydro-2H-pyrrolo[3,4-c]pyridine-6-carboxylic acid], the values for the Ki in assay [1] and in assay [2] were 358 nM and 1720 nM, respectively.
